Measurements taken from patent US6683079B2, “3-(amino-or aminoalkyl) pyridinone derivatives and their use for the treatment of HIV related diseases” (Centre National de la Recherche Scientifique, priority 1998, dated 2004).

What was measured:
[1] = test system: HIV-1 strain IIIB; test: Retrovirucidal effect on HIV-1 strain IIIB (Table 3); assay type: cell-based; conditions: for HIV1 pIC50 strain IIIB: pIC50=-log IC50, IC50 in M
Procedure: (§1) HIV-1 viral suspensions were obtained by coculture of MT4 cells and H9 cells chronically infected by HIV-ILai isolate. 200 μl of a cell supernatant containing viral particles (HIV-ILai: 100 TCID50) were incubated at room temperature with various concentrations of different inhibitors. After 3 hours, virions were washed through 0.02 μm anopore membrane in 1.5 mL Vectaspin tube (Whatman) for 10 minutes at 5 000 g. Each of the three subsequent washes was performed in the same conditions after the viral concentrate was refilled with 500 μL of RPMI medium. Then, the viral concentrate was readjusted to the initial volume with RPMI plus 10% foetal calf serum (FCS). The residual infectivity was assayed on P4 cells as described by CHARNEAU et al. (1994, J. Mol. Biol., 241, 651-662). Briefly, P4 cells were plated using 100 μL of DMEM medium plus 10% FCS in 96 plate multi-wells at 20×10^5 cells per mL. After overnight incubation at 37° C., the supernatant was discarded and the viral preparation (200 μL) was added. One day later the wells were washed three times in PBS. Each well was refilled with 200 μL of a reaction buffer containing 50 mM Tris-HCl pH 8.5, 100 mM 2-mercaptoethanol, 0.05% Triton X-100 and 5 mM 4-methylumbelliferyl β-D-galactopyranoside (MUG). After 3 hours at 37° C., the level of the reaction was measured in a fluorescence microplate reader.
(§2) The retrovirucidal effect of each pyridinone derivative listed in table 3 has been assayed according to the teachings of example 2, excepted that the anti-viral effect has been tested on the two following HIV-1 strains:
a) HIV-1 strain IIIB (see example 2);

[2] = test system: HIV-1 strain 103 N; test: Retrovirucidal effect on HIV-1 strain 103 N (Table 3); assay type: cell-based; conditions: HIV-1 strain 103N (RT Lys-103 to Asn mutant); pIC50=-log IC50, IC50 in M
Procedure: as §1, §2
b) HIV-1 strain 103 N which is a mutant strain bearing a point mutation in the reverse transcriptase gene leading to an enzyme wherein the initial Lys-103 residue is replaced for a Asn residue.
The HIV-1 103 N strain has also been described by SAHLBERG et al.,(1998, Antiviral Res., 37 (3): ASS) and BALZARiNI et al. (1996, Antimicrobial Agents and Chemotherapy, 40 (6): 1454-1466).

SMILES	HIV1 pIC50 strain IIIB [1]	HIV1 pIC50 strain 103N [2]	HIV1 pIC50 (pIC50=−log IC50) [1]
CCc1c(C)[nH]c(=O)c(N2CCCCC2)c1Cc1cc(C)cc(C)c1 [Compound 30]	6.214	4.224	
CCOC(=O)Cn1c(C)c(CC)c(Cc2cc(C)cc(C)c2)c(N(C)C)c1=O [Compound 23]	5.254	<4	
CCc1c(C)[nH]c(=O)c(N2CCOCC2)c1Cc1cc(C)cc(C)c1 [Compound 36]	6.763	<4	
CCc1c(C)[nH]c(=O)c(N(C)C)c1C(=O)c1cccs1 [Compound 178]	7.873	6.461	
Cc1cc(C)cc(Cc2cc(CCC(C)C)[nH]c(=O)c2N(C)C)c1 [Compound 77]	5.827	<4	
CCc1c(C)[nH]c(=O)c(N(C)C)c1Cc1nccs1 [Compound 66]	7.588	5.72	
CCCCNc1c(Cc2cc(C)cc(C)c2)c(CC)c(C)[nH]c1=O [Compound 69]	6.891	5.655	
CCc1c(C)[nH]c(=O)c(NCc2ccccc2)c1Cc1cc(C)cc(C)c1 [Compound 29]	6.555	5.496	
CCc1c(C)[nH]c(=O)c(N(C)CCOC)c1C(=O)c1cccc(C)c1 [Compound 175]	8.921	7.717	
CCc1[nH]c(=O)c(N)c(Cc2cc(C)cc(C)c2)c1C [Compound 27]	5.949	5.098	
CCCNc1c(Cc2cc(C)cc(C)c2)c(CC)c(C)[nH]c1=O [Compound 82]	7.735	5.813	
CCc1c(C)[nH]c(=O)c(N(C)CC)c1Cc1cc(C)cc(C)c1 [Compound 56]	8.194	7.11	
CCc1c(C)[nH]c(=O)c(N(C)C)c1Cc1cc(Cl)cc(Cl)c1 [Compound 191]	8.097	7.553	
CCc1c(C)[nH]c(=O)c(N(C)Cc2ccccc2)c1Cc1cc(C)cc(C)c1 [Compound 67]	6.804	4.955	
CCc1c(C)[nH]c(=O)c(N(C)C)c1CNc1ncccn1 [Compound 171]	5.895	4.74	
CCc1c(C)[nH]c(=O)c(N(C)CCOC)c1Cc1cccc(C(F)(F)F)c1 [Compound 161]	7.821	5.814	
CCc1c(C)[nH]c(=O)c(N(C)C)c1Nc1cccc(C)c1 [Compound 176]	8.432	6.436	
CCc1c(C)[nH]c(=O)c(N(C)C)c1Cc1ccc(C)cc1 [Compound 18]	6.454	4.895	
CCc1c(C)[nH]c(=O)c(N)c1C(=O)c1cccs1 [Compound 177]	5.106	<4	
CCc1c(Cc2cc(C)cc(C)c2)c(N(C)C)c(=O)n(C)c1C [Compound 11]	7.215	6.094	
CCc1c(C)[nH]c(=O)c(N(C)C)c1COc1cccc(C)c1 [Compound 162]	6.418	5.026	
CCc1c(C)[nH]c(=O)c(N(C)C)c1Cc1ccc(-c2ccccc2)cc1 [Compound 51]	5.384	<5	
CCCN(C)c1c(Cc2cc(C)cc(C)c2)c(CC)c(C)[nH]c1=O [Compound 47]	7.767	6.968	
CCc1c(C)[nH]c(=O)c(N)c1C(=O)c1cccc(C)c1 [Compound 87]	6.46	5.653	

SMILES	HIV1 pIC50 strain IIIB [1]	HIV1 pIC50 strain 103N [2]	HIV1 pIC50 (pIC50=−log IC50) [1]
CCc1c(C)[nH]c(=O)c(N(C)C)c1C(=O)c1cccc(Br)c1 [Compound 174]	8.921	7.68	
CCc1c(C)[nH]c(=O)c(N(C)C)c1Cc1cccc(Cl)c1 [Compound 40]	8.585	7.412	
Cc1cccc(C(=O)c2c(C)c(C)[nH]c(=O)c2N(C)C)c1 [Compound 96]	7.824	6.37	
CCCc1[nH]c(=O)c(N(C)C)c(Cc2cc(C)cc(C)c2)c1C [Compound 63]	7.029	6.334	
CCCc1cccc(Cc2c(CC)c(C)[nH]c(=O)c2N(C)C)c1 [Compound 104]	8	7.058	
CCc1c(C)[nH]c(=O)c(N)c1Sc1cc(C)cc(C)c1 [Compound 1]	7.699	6.671	7,6999
CCc1c(C)[nH]c(=O)c(N(C)C)c1Cc1ccc(C)c(C)c1 [Compound 19]	7.447	5.947	
CCc1c(C)[nH]c(=S)c(N(C)C)c1C(=O)c1cc(C)cc(C)c1 [Compound 138]	8.215	7.401	
CCc1c(C)[nH]c(=O)c(N(C)C)c1Sc1cc(C)cc(C)c1 [Compound 149]	8.959	7.883	
CCc1c(C)[nH]c(=O)c(N)c1CNCc1cccc(C)c1 [Compound 83]	<4.033	<4	
CCc1c(C)[nH]c(=O)c(N)c1C(=O)c1cc(C)cc(C)c1 [Compound 2]	6.612	6.64	
CCc1c(C)[nH]c(=O)c(N(C)CCCCCO)c1Cc1cccc(C)c1 [Compound 154]	8.009	6.262	
CCc1c(C)[nH]c(=O)c(N)c1Cc1cccc(C(F)(F)F)c1 [Compound 50]	<5	<5	
CCc1c(C)[nH]c(=O)c(N(C)C)c1Cc1ccccc1 [Compound 21]	8.409	6.65	
CCc1c(C)[nH]c(=O)c(N(C)C)c1Cc1ccnc2ccccc12 [Compound 75]	5.252	4.132	
Cc1cccc(Cc2c(C)c(C)[nH]c(=O)c2N(C)C)c1 [Compound 86]	7.863	5.936	
CCc1c(C)[nH]c(=O)c(N(C)C)c1[S+]([O-])c1cc(C)cc(C)c1 (centres unmarked) [Compound 170]	8.553	7.224	
Cc1cc(C)cc(Cc2cc(C)[nH]c(=O)c2N(C)C)c1 [Compound 101]	6.341	4.25	
CCc1c(C)[nH]c(=O)c(N)c1Cc1cccc(F)c1 [Compound 41]	5.131	4.473	
CCc1c(C)[nH]c(=O)c(N(C)CCOC)c1Cc1cc(C)cc(C)c1 [Compound 78]	8.678	7.128	
CCc1c(C)[nH]c(=O)c(N(C)C)c1Cc1ccc(C(F)(F)F)cc1 [Compound 53]	5.828	<5	
CCc1c(C)[nH]c(=O)c(N(C)C)c1Sc1cccc(Br)c1 [Compound 193]	8.481	7.245	
CCc1c(C)[nH]c(=O)c(N(C)C)c1Cc1cccc(C)c1 [Compound 13]	8.824	7.622	
